# Experimental data as given in patent US20190224147A1, “CETP MODULATOR FOR USE IN THE TREATEMENT OF EYE DISEASE” (Hoffmann-La Roche Inc., priority 2013, published 2019).
# Marks after values point to notes of the source that are not given here.
# How the values were obtained:
# [1] = Golden Syrian hamsters study b: additional variables measured (cholesterol fractions, triglycerides); type: in vivo; details: 14 days, dalcetrapib ~300 mg/kg or anacetrapib ~25 mg/kg in diet
# Method: (§1) Hamsters (7 weeks-old) were fed a standard rodent chow diet containing 4.5% fat and 0.05% cholesterol and coconut oil (70 g/kg dry food) for 14 days. After 2 weeks of high-fat diet feeding, hamsters were allocated to 3 experimental treatment groups of 10 animals each based on plasma lipid levels, and provided the same diet as before supplemented with 0.1% (w/w) FLORAGLO (same composition as for Study 2) and either no treatment (group 1), dalcetrapib at 0.320% (w:w, ˜300 mg/kg, group 2), or anacetrapib at 0.024% (w:w, ˜25 mg/kg, group 3).
# [2] = Golden Syrian hamsters study b: lutein and zeaxanthin levels in plasma and liver; type: in vivo; details: hamsters fed 0.1% FLORAGLO, 14 days, dalcetrapib 0.320% (~300 mg/kg) or anacetrapib 0.024% (~25 mg/kg) in diet
# Method: as §1, with “3). After 14 days of treatment, plasma and livers were collected for lutein and zeaxanthin analysis as described in study a.” for “3).”
# [3] = tested on: ICAM-1; details: pre-treatment of human aortic endothelial cells; Martin K R et al, Atherosclerosis 2000; cited from earlier work
# [4] = tested on: E-selectin expression; details: pre-incubation of human aortic endothelial cells; Martin K R et al, Atherosclerosis 2000; cited from earlier work
# [5] = tested on: VCAM-1 expression; details: pre-incubation of human aortic endothelial cells; Martin K R et al, Atherosclerosis 2000; cited from earlier work
# [6] = Golden Syrian hamsters study a: lutein and zeaxanthin levels in plasma, liver and eyecups (HPLC-MS); type: in vivo; details: hamsters fed 0.1% FLORAGLO, dalcetrapib 0.375% food admixture (~400 mg/kg), 14 days
# Method: Hamsters (7 weeks-old) were fed a standard rodent chow diet containing 4.5% fat and 0.05% cholesterol and coconut oil (70 g/kg dry food) for 14 days. After two weeks of feeding, hamsters were allocated to 2 experimental groups of 10 animals and given the same diet as before supplemented with 0.1% (w:w) FLORAGLO (lutein 5.2%, zeaxanthin 0.5%, DSM Nutritional Products): group 1 received no treatment, group 2 was given dalcetrapib as a 0.375% food admixture (˜400 mg/kg).
# After 14 days of treatment and 4 hours of fasting, plasma, liver and eyes were collected and kept frozen until analysis. Lutein and zeaxanthin levels in plasma, liver and the pooled eyecups from 2 hamsters were determined by HPLC-MS using cryptoxanthin as internal standard. Plasma samples were directly extracted with hexane/ethyl acetate in dark environment in the presence of BHT. Liver samples and pooled eye cups (n=4) were first homogenized in the presence of BHT using an appropriate solvent in a Precellys tissue homogenizer followed by saponification prior extraction with hexane/ethyl acetate. The organic phase was washed with water. All organic phases were dried and reconstituted in methanol containing 0.1%. HPLC-MS was accomplished on a Waters TQ-S in APCI mode coupled to an Acquity I-class UPLC (Waters AG, Baden-Dättwil) on an ACCLAIM C30 RP column (Thermo Fisher Scientific, Reinach).
SMILES,"Triglycerides, in % vs control [1]","VLDL-C, in % vs control [1]","Change in liver lutein, in % vs control [2]","Change in liver zeaxanthin, in % vs control [2]","Change in plasma lutein, in % vs control [2]","Change in plasma zeaxanthin, in % vs control [2]",reduced the expression of ICAM-1 [3],reduced E-selectin expression [4],reduced VCAM-1 expression [5],further results
COc1cc(F)c(C(C)C)cc1-c1ccc(C(F)(F)F)cc1CN1C(=O)O[C@H](c2cc(C(F)(F)F)cc(C(F)(F)F)c2)[C@@H]1C [anacetrapib],ns,ns,−32%,−31%,ns,ns,–,–,–,"HDL-C, in % vs control [1]: +54*** %; LDL-C, in % vs control [1]: −99*** %; Total cholesterol, in % vs control [1]: +28** %"
CC1=C(/C=C/C(C)=C/C=C/C(C)=C/C=C/C=C(C)/C=C/C=C(C)/C=C/C2=C(C)CCCC2(C)C)C(C)(C)CCC1 [beta-carotene],–,–,–,–,–,–,11%,38%,29%,–
"CCC(CC)CC1(C(=O)Nc2ccccc2SC(=O)C(C)C)CCCCC1 [dalcetrapib, S-[2-([[1-(2-ethylbutyl)-cyclohexyl]-carbonyl]amino)phenyl]2-methylpropanethioate]",−37** %,−27* %,+90%,+109%,+95%,+101%,–,–,–,"Change in liver lutein, in % vs control ([6]; liver): +107%; Change in liver zeaxanthin, in % vs control ([6]; liver): +222.9%; Change in plasma lutein, in % vs control ([6]; plasma): +55.7%; Change in plasma zeaxanthin, in % vs control ([6]; plasma): +164%; Change in eyecups lutein, in % vs control ([6]; pooled eyecups): +164.6%; Change in eyecups zeaxanthin, in % vs control ([6]; pooled eyecups): +114%"
"CC1=C[C@H](O)CC(C)(C)[C@H]1/C=C/C(C)=C/C=C/C(C)=C/C=C/C=C(C)/C=C/C=C(C)/C=C/C1=C(C)C[C@@H](O)CC1(C)C [lutein, (3R,3′R,6′R)-β,ε-Carotene-3,3′-diol]",–,–,–,–,–,–,14%,34%,28%,–
CC(C)=CCC/C(C)=C/C=C/C(C)=C/C=C/C(C)=C/C=C/C=C(C)/C=C/C=C(C)/C=C/C=C(\C)CCC=C(C)C [lycopene],–,–,–,–,–,–,18%,–,13%,–
